Test results from US5432200A, “Method for increasing urinary excretion of electrolytes” (priority 1993, dated 1995).
Structures can show the parent of a compound that is named as a salt.

Key:
[1] = Physiological effects: urinary composition in two patients, five phases of study (Example 8, Table 1); type: in vivo, human (patients); settings: for Urinary Ca / Urinary pH / Urinary Oxalate / Urinary K / Urinary Mg / Urinary Na / Urinary Citrate: mean of two patients, tablets/d: KCl 7, K citrate 10, Mg citrate 2.5, K-Mg citrate 7; for Urinary pH: placebo 6.26; for Urinary Oxalate: placebo 27; for Urinary K: placebo 31; for Urinary Mg: placebo 64; for Urinary Na: placebo 95; for Urinary Citrate: placebo 498
[2] = cited from earlier work
[3] = Bioavailability of potassium, magnesium and citrate in normal subjects: cumulative increment in urinary excretion after single oral dose (Example 7); settings: urine 24 hours
Procedure: The study was performed with three normal subjects.
The subject underwent three phases of study. […] Urine was collected at frequent intervals for 24 hours after oral ingestion of each salt (at 8 a.m.).
Potassium bioavailability from potassium magnesium citrate was compared with that of potassium citrate. At each time period, the difference in urinary potassium following ingestion of potassium magnesium citrate (containing 49 meq potassium) or potassium citrate (containing 50 meq potassium) from that obtained at a corresponding time period following taking magnesium citrate (no potassium; therefore serving as control).
Magnesium bioavailability from potassium magnesium citrate was compared with that of magnesium citrate.
Citrate bioavailability from potassium magnesium citrate was compared with that of potassium citrate and magnesium citrate.

[4] = system: hypercalciuric nephrolithiasis; settings: cited from earlier work
[5] = system: nephrolithiasis; settings: cited from earlier work
[6] = human, in vivo, po
[7] = in vivo; cited from earlier work
[8] = hypercalciuric patients with nephrolithiasis treated with thiazide

## O=C(O)CC(O)(CC(=O)O)C(=O)O [magnesium citrate]
[1]; listed as Magnesium Citrate
  Urinary Ca: 137 mg/day
  Urinary pH: 6.13
  Urinary Oxalate: 23 mg/day
  Urinary K: 38 meq/d
  Urinary Mg: 113 mg/day
  Urinary Na: 82 meq/d
  Urinary Citrate: 718 mg/day
[2]; magnesium salts provided in small divided doses
  magnesiuric and citraturic effect compared with magnesium oxide: equivalent magnesiuric and citraturic effect as magnesium oxide
[2]; vs magnesium oxide
  absorbability compared with magnesium oxide: more soluble and absorbable than magnesium oxide
[3]; 24.5 meq Mg (potassium magnesium citrate) vs 25 meq Mg (magnesium citrate), potassium citrate phase as control, FIG. 3
  cumulative increment in urinary magnesium (magnesium bioavailability or absorption): equivalent magnesium bioavailability between the two preparations

## O=C(O)CC(O)(CC(=O)O)C(=O)O [potassium citrate]
[1]; listed as Potassium Citrate
  Urinary Ca: 86 mg/day
  Urinary pH: 6.93
  Urinary Oxalate: 27 mg/day
  Urinary K: 80 meq/d
  Urinary Mg: 69 mg/day
  Urinary Na: 91 meq/d
  Urinary Citrate: 821 mg/day
[4]; [8]
  citrate excretion: augments citrate excretion
  effect on thiazide-induced hypokalemia: averts the development of hypokalemia
[4]; patients who have relapsed on thiazide therapy
  recurrent stone formation: prevents recurrent stone formation
[4]; potassium citrate therapy
  effect on thiazide-induced magnesium depletion: does not avert thiazide-induced magnesium depletion
[3]; 49 meq K (potassium magnesium citrate) vs 50 meq K (potassium citrate), magnesium citrate phase as control, FIG. 2
  cumulative increment in urinary potassium (potassium bioavailability): equivalent between the two preparations

## NS(=O)(=O)c1cc2c(cc1Cl)NCNS2(=O)=O [thiazide]
[5]; thiazide therapy, by provoking renal loss of potassium and magnesium
  potassium and magnesium depletion: may cause hypokalemia and magnesium depletion
[5]; use of thiazide alone
  relapse rate: 37.5-57.1%

## O=C([O-])CC(O)(CC(=O)[O-])C(=O)[O-].O=C([O-])CC(O)(CC(=O)[O-])C(=O)[O-].[K+].[K+].[K+].[K+].[Mg+2] [potassium magnesium citrate, tetrapotassium monomagnesium dicitrate]
[1]
  Urinary Ca: 106 mg/day
  Urinary pH: 6.94
  Urinary Oxalate: 23 mg/day
  Urinary K: 73 meq/d
  Urinary Mg: 116 mg/day
  Urinary Na: 92 meq/d
  Urinary Citrate: 968 mg/day
[1]; vs magnesium citrate
  urinary pH and citrate compared to magnesium citrate: higher values for urinary pH and citrate
[1]; vs placebo
  urinary calcium and oxalate compared to placebo: lower values for urinary calcium and oxalate
  urinary pH, magnesium, potassium and citrate compared to placebo: higher values for urinary pH, magnesium, potassium and citrate
[1]; vs potassium chloride
  urinary pH, magnesium and citrate compared to potassium chloride: higher urinary pH, magnesium, and citrate
[1]; vs potassium citrate
  citrate and magnesium excretion compared to potassium citrate: greater citrate excretion as well as enhanced magnesium excretion
[6]
  cumulative increment in urinary citrate (citrate bioavailability): much higher for potassium magnesium citrate than for the other two preparations

## [Cl-].[K+] [potassium chloride]
[1]
  Urinary Ca: 103 mg/day
  Urinary pH: 5.84
  Urinary Oxalate: 27 mg/day
  Urinary K: 90 meq/d
  Urinary Mg: 73 mg/day
  Urinary Na: 81 meq/d
  Urinary Citrate: 636 mg/day
[7]
  side effects: arrhythmia and diarrhea
